From paper PMC5015098, “Purification, characterization, cytotoxicity and anticancer activities of L-asparaginase, anti-colon cancer protein, from the newly isolated alkaliphilic Streptomyces fradiae NEAE-82” (Scientific Reports, 2016) come the findings set out here.

For this assay, the system named is T1, L-asparaginase.
T1 construct: gene EC 3.5.1.1
Conditions: 0.05 M Tris-HCl pH 8.6, 37 °C, 30 min (standard assay).

In general, Km refers to the concentration of substrate that gives half-maximal velocity. For the compound `NC(=O)C[C@H](N)C(=O)O` [L-asparagine], the Km worked out at 10.1 mM.
